Here are results for one compound from paper PMC5794198, “Inhibitors of Trypanosoma cruzi Sir2 related protein 1 as potential drugs against Chagas disease” (PLoS Neglected Tropical Diseases, 2018).

Entries after “also recorded” stand apart in the source; their conditions may differ. Some results are limits rather than exact numbers.

The test system of one data set is T. cruzi amastigotes. The data set can be described thus: High-content screening assay on intracellular T. cruzi amastigotes. The format is cell-based, Trypanosoma cruzi. As to conditions: Trypanosoma cruzi, C2C12, 72 h, Y strain in C2C12 host cells, 72 h; read-out: Anti-T. cruzi Activity Amastigotes (EC50 ± SD). In a few lines:
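C2C12 host cells were infected 24 hr with Y strain tissue culture-derived trypomastigotes, then exposed to compound for 72 hrs. After paraformaldehyde fixation and DAPI staining, high-content imaging segmented host nuclei and parasite kinetoplast DNA. Read-out was the average number of amastigotes per host cell.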

The nature of another data set: Solubility. Type of data set: physicochemical.
The subject of a further data set is T. cruzi Y strain (Luc+). Briefly: Mouse model of T. cruzi infection, bioluminescence imaging. Type of data set: in vivo, BALB/c mice. Conditions: 5 mg/kg/day intravenously for 4 consecutive days from day 7 of infection; listed as BNIPSpd (9). The protocol: To evaluate BNIPSpd (9) efficacy in vivo, five- to six-week-old female BALB/c mice (Charles River) and infected with T. cruzi trypomastigotes expressing luciferase. Parasites were collected from the supernatants of a monolayer of Vero infected cells, washed and suspended in PBS-glucose 0.2%, and injected intraperitoneally (1 x 10^4 per mouse). After 7 days of infection, mice were treated with drugs for 4 consecutive days orally with (benznidazole in 20% Kolliphor HS 15) or intravenously with (BNIPSpd (9) in 10% DMSO) at a dose of 100 or 5 mg/kg/day, respectively. Infection and treatment efficiency were evaluated following subcutaneous injection of 2.1 mg of luciferin and through live imaging using an IVIS Lumina LT (Perkin Elmer). Images of the animals were analysed using the Living Image software (Perkin Elmer).
Supplementary file pntd.0006180.s006.tif: S5 Fig In vivo efficacy testing of BNIPSpd (9). A) Mice were infected with 10^4 Luc^+ trypomastigotes by intraperitoneal injection. […] In the lower panel, bioluminescence signal of whole mice represented in average radiance (photons/sec/cm^2/sr) quantified before and after treatment. […] B) Snapshot Pharmacokinetics of BNIPSpd (9) in BALB/c mice by quantification of BNIPSpd (9) in the blood of mice by UHPLC-MS/MS ESI+ at different time-points after administration of a 5 mg/kg dose by intravenous injection. […]

The next data set in a line: Gastric stability. Type of data set: in vitro ADME.
For another data set, the system named is Hepatocytes. Briefly: MTT cytotoxicity on hepatocytes. The format is cell-based. Conditions: MTT. As to the method: (§1) To evaluate toxicity towards mammalian cell lines (hepatocytes (Seralab), neurons and MDCK cells (ATCC); a renal cell line from dogs), all the compounds were assayed with MTT [66]. Additionally, for cardiotoxicity evaluation, where toxic effects in cardiomyocytes could be affecting their function before being lethal, a hERG assay was performed according to the manufacturer’s protocol Predictor hERG Fluorescence Polarization Assay (Invitrogen). Briefly, inhibition of hERG channel was analysed by competition of BNIPSpd and a high-affinity red fluorescent hERG channel ligand. BNIPSpd (9) was mixed with the ligand and membranes containing hERG channel, incubated for 2 hrs at RT and the fluorescence polarization was measured using 530 / 590 nm ex/em filters using the Synergy 2 plate reader (Biotek).

Data set [1] is described as follows: MTT cytotoxicity on hepatocytes. The format is cell-based. Conditions: hepatocytes, CC50 cell line / EC50 T. cruzi; read-out: Selectivity Index, hepatocytes. As to the method:
as §1

Regarding `O=C1c2cccc3cccc(c23)C(=O)N1CCCNCCCCNCCCNCCCN1C(=O)c2cccc3cccc(c23)C1=O` [Compound 9, BNIP Spermidine], the EC50 in the data set with T. cruzi amastigotes was 2.84 ± 0.18 µM. Also, the Aqueous solubility entry in the data set “Solubility” is “up to 70%”. Also, in the data set on T. cruzi Y strain (Luc+), the “In vivo activity (bioluminescence signal vs vehicle)” value is recorded as “did not exhibit any in vivo activity; also recorded: lack of in vivo activity”. In addition, the Gastric stability in “Gastric stability” came out at 100%. The “Hepatotoxicity (Hepatocytes) cytotoxicity” value in the data set with Hepatocytes was at least 3.1 µM. In addition, in data set [1], the selectivity ratio was around 1.
